{
  "source": "patent US7148218B2",
  "about": "(priority 2001, dated 2006)",
  "assay_in_all_cases": "cells",
  "key": {"[1]": {"test_system": "1A9 ovarian carcinoma", "assay_type": "cell-based, human", "settings": "3-day exposure, average of two or more separate experiments", "source_text": "(§1) As indicated above, all of the compounds of formula I are anti-tumor agents and are, therefore, useful in inhibiting the growth of various lymphomas, sarcomas, carcinomas, myelomas, and leukemia cell lines. […] This assay was adapted from the 60 cell line assay used by the National Cancer Institute (NCI) with the following modifications: • 1) four cell lines representative for the important tumor types, viz., MIP 101 colon carcinoma, HCT 116 colon carcinoma, 1A9 ovarian carcinoma and 1A9PTX22 ovarian carcinoma, were utilized; and 2) a tetrazolium derivative, viz., MTT, was utilized to determine cell density.\n(§2) The ADGMA compares the number of viable cells following a 3-day exposure to a test compound relative to the number of cells present at the time the test compound was added. […] The absorbance at 540 nm (A540) of the formazan derivative is proportional to the number of viable cells. The IC50 for a test compound is the concentration of compound required to reduce the final cell number to 50% of the final control cell number. If cell proliferation is inhibited, the assay further defines compounds as cytostatic (cell number after 3-day compound incubation >cell number at time of compound addition) or cytotoxic (cell number after 3-day compound incubation <cell number at time of compound addition).\n(§3) The HCT 116 colon carcinoma cell line was obtained from the American Type Culture Collection (ATCC, Rockville, Md.). The MIP 101 colon carcinoma cell line was obtained from Dr. Robert Kramer (Bristol Meyers Squibb) and was previously described (Niles R M, Wilhelm S A, Steele G D JR, Burke B, Christensen T, Dexter D, O'Brien M J, Thomas P, Zamcheck N. Isolation and characterization of an undifferentiated human colon carcinoma cell line (MIP-101). Cancer Invest. 1987;5(6):545–52.). The 1A9 and the 1A9PTX22 ovarian tumor cell lines were obtained from Dr. Tito Fojo, Medicine Branch, Division of Clinical Sciences, National Cancer Institute, National Institutes of Health, Bethesda, Md. 20892. The 1A9 is a clone of the ovarian carcinoma cell line, A2780 (Giannakakou P, Sackett, D L, Kang Y-K, Zhan Z, Buters J T M, Fojo T, Poruchynsky MS. Paclitaxel-resistant human ovarian cancer cells have mutant δ-tubulins that impaired paclitaxel-driven polymerization. J. Biol. Chem. 1997, 272(4):17118–17125). The 1A9PTX22 subline was isolated as an individual clone from the 1A9 cell line in a single step selection by exposure to 5 ng/mL paclitaxel in the presence of 5 μg/mL of verapamil. All cell lines were used between passages 4–20 following thawing. MIP-101 colon carcinoma, HCT 116 colon carcinoma, 1A9 ovarian carcinoma and 1A9PTX22 ovarian carcinoma cell lines are maintained and plated in RPMI 1640 medium containing 10% fetal bovine serum.\n(§4) Cells are trypsinized and counted using a hemacytometer to determine cell concentrations. Cells were then plated in their respective maintenance media (200 μL/well) in 96-well plates at the following concentrations: MIP-101, 2000 cells/well; HCT 116, 2000 cells/well; 1A9, 10000 cells/well; and 1A9PTX22, 10000 cells/well. […] Initial cell densities, assayed one day after plating, are roughly 0.10–0.20 A540 absorbance units greater than the media blank. Ninety-six well plates were seeded on day 0 and the test compounds are added on day 1. A “time 0” plate was created that received media only in row A and one cell line/row in rows B–E. The “time 0” plate was processed 24 hours after plating (at the time when drugs were added to experimental plates), as follows: 5 micoliters of the MTT stock solution (0.5 mg/mL in PBS) was added to each well and then incubated for three hours at 37° C., 5% CO2, in a humidified environment. Media was then carefully and completely removed. Plates were allowed to dry in the dark. DMSO (dimethylsulfoxide) was added to each well (100 μL/well) and plates were placed on an orbital shaker for 2 hours. […]"}, "[2]": {"test_system": "1A9PTX22 ovarian carcinoma", "assay_type": "cell-based, human", "settings": "3-day exposure, paclitaxel-resistant subline, average of two or more separate experiments", "source_text": "as §1, §2, §3, §4"}, "[3]": {"test_system": "MIP 101 colon carcinoma", "assay_type": "cell-based, human", "settings": "3-day exposure, average of two or more separate experiments, read-out: IC50 MIP101", "source_text": "as §1, §2, §3, §4"}, "[4]": {"test_system": "HCT 116 colon carcinoma", "assay_type": "cell-based", "settings": "3-day exposure, average of two or more separate experiments, read-out: IC50 HCT116", "source_text": "as §1, §2\nThe HCT 116 colon carcinoma cell line was obtained from the American Type Culture Collection (ATCC, Rockville, Md.). The MIP 101 colon carcinoma cell line was obtained from Dr. Robert Kramer (Bristol Meyers Squibb) and was previously described (Niles R M, Wilhelm S A, Steele G D JR, Burke B, Christensen T, Dexter D, O'Brien M J, Thomas P, Zamcheck N. Isolation and characterization of an undifferentiated human colon carcinoma cell line (MIP-101). Cancer Invest. 1987;5(6):545–52.). […]\nCells are trypsinized and counted using a hemacytometer to determine cell concentrations. […] Initial cell densities, assayed one day after plating, are roughly 0.10–0.20 A540 absorbance units greater than the media blank. […]"}},
  "note": "Where two headings read alike, the source gives them in different places.",
  "data": [
    {"compound": "C=C/C=C\\[C@H](C)C(OC(N)=O)C(C)C(O)C(C)C(=O)N(C)C[C@H](C)[C@@H](O)[C@@H](C)/C=C\\C(O)C[C@@H]1OC(=O)[C@H](C)C(O)C1C", "note": "(stereo partly drawn) [Ex. 2, (2R,3S,4R,5S,7S,8Z)-13-[[(2R,3S,4S,5S,6S,7Z)-5-[(aminocarbonyl)oxy]-3-hydroxy-2,4,6-trimethyl-1-oxo-7,9-decadienyl]methylamino]-3,5,7,11-tetrahydroxy-2,4,10,12-tetramethyl-8-tridecenoic acid δ-lactone]", "values": [
      {"measurement": "IC50", "setting": "[1]; Homo sapiens, 72 h", "result": 4000, "unit": "nM"},
      {"measurement": "IC50", "setting": "[2]; Homo sapiens, 1A9/ptx-22, 72 h", "result": 6000, "unit": "nM"},
      {"measurement": "IC50", "setting": "[3]; Homo sapiens, 72 h", "result": 20000, "unit": "nM"},
      {"measurement": "IC50", "setting": "[4]; Homo sapiens, HCT-116, 72 h", "result": 13000, "unit": "nM"}
    ]},
    {"compound": "CC(=O)O[C@H]1C(=O)[C@@]2(C)[C@H]([C@H](OC(=O)c3ccccc3)[C@]3(O)C[C@H](OC(=O)[C@H](O)[C@@H](NC(=O)c4ccccc4)c4ccccc4)C(C)=C1C3(C)C)[C@]1(OC(C)=O)CO[C@@H]1C[C@@H]2O", "note": "[paclitaxel, reference compound]", "values": [
      {"measurement": "IC50", "setting": "[1]; Homo sapiens, 72 h", "result": 47, "unit": "nM"},
      {"measurement": "IC50", "setting": "[2]; Homo sapiens, 1A9/ptx-22, 72 h", "result": 1, "unit": "nM"},
      {"measurement": "IC50", "setting": "[3]; Homo sapiens, 72 h", "result": 200, "unit": "nM"},
      {"measurement": "IC50", "setting": "[4]; Homo sapiens, HCT-116, 72 h", "result": 0.3, "unit": "nM"}
    ]},
    {"compound": "(2R,3S,4S,5S,7S,8Z,10S,11S,12S,13Z,16S,17R,18S,19S,20S)-19-[(aminocarbonyl)oxy]-3,5,7,11,17-pentahydroxy-2,3,4,10,12,14,16,18,20-nonamethyl-21-(phenylmethoxy)-8,13-heneicosadienoic acid δ-lactone [Ex. 1]", "values": [
      {"measurement": "IC50", "setting": "[1]", "result": 30, "unit": "nM"},
      {"measurement": "IC50", "setting": "[2]", "result": 180, "unit": "nM"},
      {"measurement": "IC50", "setting": "[3]", "result": 3800, "unit": "nM"},
      {"measurement": "IC50", "setting": "[4]", "result": 200, "unit": "nM"}
    ]}
  ]
}
